Each structure is given as a SMILES string. Where two headings read alike, the source gives them in different places. Bounds are passed on as bounds.

The target in experiment [1] is TIP60-KAT5 (Homo sapiens (Human), UniProt Q92993). Put plainly: Acetyltransferase biochemical assay (AlphaScreen), KAT5. As to conditions: 1 μM AcCoA, histone H4.
Experiment [2] addresses HBO-KAT7 (Homo sapiens (Human), UniProt O95251). Put plainly: Acetyltransferase biochemical assay (AlphaScreen), KAT7. As to conditions: 1 μM AcCoA, histone H3.1. Background: Alpha assays give light when donor and acceptor beads are brought close together.
The target in experiment [3] is MOF-KAT8 (Homo sapiens (Human), UniProt Q9H7Z6). It is filed as biochemical. As to conditions: 1 μM AcCoA, histone H4.
Experiment [4] deals with acetylation of the histone H3K23 marker in U2OS cells. The experiment in a line: Histone H3 Lysine 23 Acetylation Biomarker Assay. It is filed as cell-based. As to conditions: Homo sapiens. The method, then: Compounds may be tested for their ability to inhibit acetylation of the histone H3K23 marker in the following assay:
The cell line U2OS was seeded at a density of 9,000 cells per well in 96 well optical quality tissue culture plates in RPMI medium and 10% foetal bovine serum, and allowed to adhere for 24 hours under standard culture conditions (37 degree Celsius, 5% CO2). At the end of this period the medium was aspirated. […] After incubation for 24 hours, the cells were fixed with 3.7% formaldehyde in PBS for 20 minutes at room temperature, washed (5×5 minutes) with phosphate buffer saline containing 0.1% Tween 20 and blocked with Odyssey blocking buffer (LI-COR, Lincoln, NE) containing 0.1% TritonX100. Anti-H3K23ac specific antibody (Abcam ab177275) in Odyssey blocking buffer containing 0.1% Tween 20 was added and incubated for 16 hours at 4 degree Celsius. […] Plates were washed as previously and read on a PerkinElmer Phenix high content imaging platform.

For experiment [5], the system named is acetylation of the histone H3 Lysine 14 marker in U2OS cells. Put plainly: Histone H3 Lysine 14 Acetylation Biomarker Assay. It is filed as cell-based. Particulars: Homo sapiens. The method, then: Compounds may be tested for their ability to inhibit acetylation of the histone H3 Lysine 14 marker in the following assay:
(§1) The cell line U2OS was seeded at a density of 3,000 cells per well in 384-well optical quality tissue culture plates in RPMI medium supplemented with 10% foetal bovine serum and 10 mM Hepes. The cells were allowed to adhere for 24 hours under standard culture conditions (37 degree Celsius, 5% CO2). At the end of this period the cells were washed with serum free medium. […] Plates were washed and read on a PerkinElmer Opera HCS high content imaging platform.

Experiment [6] has as its system histone H2A.Z Lysine 7 acetylation marker in U2OS cells. Put plainly: H2A.Z Lysine 7 Acetylation Biomarker Assay. In kind it is cell-based. Particulars: Homo sapiens. As to the method: Compounds may be tested for their ability to inhibit the histone H2A.Z Lysine 7 acetylation marker in the following assay:
as §1

For experiment [7], the target named is MOZ-KAT6A (Homo sapiens (Human), UniProt Q92794). The experiment in a line: Acetyltransferase biochemical assay (AlphaScreen), KAT6A. Particulars: 1 μM AcCoA, histone H3.1.
Where [8] appears, read: H3K23ac, U2OS cells, 24 hours, read-out: IC50.
Where [9] appears, read: H3K14ac, U2OS cells, serum free medium, 24 hours, read-out: IC50.
The mark [10] stands for this setting: H2A.ZK7ac, U2OS cells, serum free medium, 24 hours, read-out: IC50.

Chain of HBO-KAT7 (O95251 other isoform, or with tags, fused parts or gaps): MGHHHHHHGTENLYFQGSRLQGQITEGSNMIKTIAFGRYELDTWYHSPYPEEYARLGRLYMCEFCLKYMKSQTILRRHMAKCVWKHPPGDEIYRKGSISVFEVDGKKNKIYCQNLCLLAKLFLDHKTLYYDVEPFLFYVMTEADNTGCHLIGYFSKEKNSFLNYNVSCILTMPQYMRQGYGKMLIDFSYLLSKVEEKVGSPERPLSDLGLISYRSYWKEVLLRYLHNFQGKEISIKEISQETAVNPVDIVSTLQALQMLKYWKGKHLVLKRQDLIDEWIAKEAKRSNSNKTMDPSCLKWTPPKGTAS
Chain of TIP60-KAT5 (Q92993 other isoform, or with tags, fused parts or gaps): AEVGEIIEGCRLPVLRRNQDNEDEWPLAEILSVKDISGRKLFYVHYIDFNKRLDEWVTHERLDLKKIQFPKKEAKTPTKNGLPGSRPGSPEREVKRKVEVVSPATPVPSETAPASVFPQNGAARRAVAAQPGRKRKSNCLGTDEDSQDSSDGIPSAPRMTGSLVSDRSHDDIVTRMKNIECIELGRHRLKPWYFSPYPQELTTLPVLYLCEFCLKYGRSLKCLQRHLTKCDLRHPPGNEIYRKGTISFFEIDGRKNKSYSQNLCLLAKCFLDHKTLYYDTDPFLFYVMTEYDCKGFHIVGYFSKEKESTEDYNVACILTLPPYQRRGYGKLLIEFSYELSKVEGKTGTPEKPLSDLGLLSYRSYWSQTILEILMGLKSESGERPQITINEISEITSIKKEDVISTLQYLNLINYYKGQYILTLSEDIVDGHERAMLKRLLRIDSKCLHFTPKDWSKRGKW
Chain of MOF-KAT8 (Q9H7Z6 177-447): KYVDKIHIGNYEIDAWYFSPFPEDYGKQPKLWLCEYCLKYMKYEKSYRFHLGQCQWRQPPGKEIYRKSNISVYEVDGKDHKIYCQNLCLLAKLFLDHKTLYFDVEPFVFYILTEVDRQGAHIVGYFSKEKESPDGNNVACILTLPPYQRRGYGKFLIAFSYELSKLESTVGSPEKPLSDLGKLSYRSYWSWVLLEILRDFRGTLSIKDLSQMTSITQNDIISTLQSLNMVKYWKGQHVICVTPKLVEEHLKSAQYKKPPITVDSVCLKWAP
Chain of MOZ-KAT6A (Q92794 other isoform, or with tags, fused parts or gaps): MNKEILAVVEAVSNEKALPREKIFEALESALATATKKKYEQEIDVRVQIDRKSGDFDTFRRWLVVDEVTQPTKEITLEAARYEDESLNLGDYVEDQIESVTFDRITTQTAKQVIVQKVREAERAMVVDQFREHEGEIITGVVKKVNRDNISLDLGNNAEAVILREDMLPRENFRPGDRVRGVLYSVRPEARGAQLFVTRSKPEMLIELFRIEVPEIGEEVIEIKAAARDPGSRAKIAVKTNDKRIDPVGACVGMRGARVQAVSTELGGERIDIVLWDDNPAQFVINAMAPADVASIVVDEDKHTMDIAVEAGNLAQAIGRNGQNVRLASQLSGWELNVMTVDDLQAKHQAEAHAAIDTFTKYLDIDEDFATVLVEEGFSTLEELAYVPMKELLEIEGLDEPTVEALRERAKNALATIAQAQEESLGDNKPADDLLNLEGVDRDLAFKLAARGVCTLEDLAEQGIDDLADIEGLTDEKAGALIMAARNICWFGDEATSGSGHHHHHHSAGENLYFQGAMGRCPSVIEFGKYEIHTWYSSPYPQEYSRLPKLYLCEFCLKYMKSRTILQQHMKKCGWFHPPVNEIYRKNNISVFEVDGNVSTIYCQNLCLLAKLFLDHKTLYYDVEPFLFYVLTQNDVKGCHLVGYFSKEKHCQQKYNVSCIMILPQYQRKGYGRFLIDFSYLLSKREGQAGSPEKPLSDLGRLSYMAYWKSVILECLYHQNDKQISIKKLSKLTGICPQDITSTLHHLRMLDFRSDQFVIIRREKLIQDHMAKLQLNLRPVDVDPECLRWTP

Take `O=S(=O)(Nc1cc(-c2ccccc2)on1)c1cccnc1` [Example 30, N-(5-phenylisoxazol-3-yl)pyridine-3-sulfonamide]: the IC50 in experiment [1] and in experiment [2] was above 125 µM in each case.

Take `O=S(=O)(Nc1cc(-c2ccccc2)on1)c1cccc(Cl)c1` [Example 35, 3-chloro-N-(5-phenylisoxazol-3-yl)benzenesulfonamide]: the IC50 in experiment [1] and in experiment [2] was above 125 µM in each case.

Take `COc1cccc(S(=O)(=O)Nc2cc(-c3ccccc3)on2)c1` [Example 36, 3-methoxy-N-(5-phenylisoxazol-3-yl)benzenesulfonamide]: the half-inhibitory concentration (IC50) (usually the midpoint of a concentration-inhibition curve) in experiment [1] is above 125 µM.

Turning to `N#Cc1ccc(S(=O)(=O)Nc2cc(-c3ccccc3)on2)cc1` [Example 45, 4-cyano-N-(5-phenylisoxazol-3-yl)benzenesulfonamide], the IC50 in experiment [1] and in experiment [3] was above 125 µM in each case.

In experiment [1], `N#Cc1cccc(S(=O)(=O)Nc2cc(-c3ccccc3)on2)c1` [Example 46, 3-cyano-N-(5-phenylisoxazol-3-yl)benzenesulfonamide] returned an IC50 above 125 µM.

With `O=S(=O)(Nc1cc(-c2ccccc2)on1)c1ccc(C(F)(F)F)cc1` [Example 47, N-(5-phenylisoxazol-3-yl)-4-(trifluoromethyl)benzenesulfonamide], the IC50 in experiment [1] is above 125 µM.

For the molecule `COc1ccccc1-c1cc(N(C)S(=O)(=O)c2c(OC)cc(-c3ccccc3)cc2OC)no1` [Example 55, 2,6-Dimethoxy-N-[5-(2-methoxyphenyl)isoxazol-3-yl]-N-methyl-4-phenyl-benzenesulfonamide], the IC50 in experiment [1] and in experiment [3] was above 125 µM throughout.

In experiment [3], `O=S(=O)(Nc1cc(-c2ccccc2)on1)c1ccccc1` [Example 63, N-(5-phenylisoxazol-3-yl)benzenesulfonamide] showed an IC50 above 125 µM.

In the case of `O=S(=O)(Nc1noc(-c2ccccc2)n1)c1ccccc1F` [Example 68, 2-Fluoro-N-(5-phenyl-1,2,4-oxadiazol-3-yl)benzenesulfonamide], the IC50 in experiment [1] and in experiment [2] was above 125 µM in each case.

As to `COc1ccc(-c2ccn[nH]2)cc1-c1cc(NS(=O)(=O)c2c(OC)cccc2OC)no1` [Example 72, 2,6-Dimethoxy-N-(5-(2-methoxy-5-(1H-pyrazol-5-yl)phenyl)isoxazol-3-yl)benzenesulfonamide], the IC50 in experiment [4] (U2OS, 24 h) came out at 0.204 µM; in experiment [5] (U2OS, 24 h), 0.575 µM; in experiment [6] (U2OS, 24 h) it was 4.73 µM.

Take `COCc1ccc(OC)c(-c2cc(NS(=O)(=O)c3c(OC)cccc3OC)no2)c1` [Example 73, 2,6-Dimethoxy-N-(5-(2-methoxy-5-(methoxymethyl)phenyl)isoxazol-3-yl)benzenesulfonamide]: the IC50 in experiment [4] (U2OS, 24 h) was determined as 0.0171 µM; in experiment [5] (U2OS, 24 h), 1.29 µM; in experiment [6] (U2OS, 24 h), 35.2 µM.

`COC(=O)c1c(-c2ccc(OC)cc2)noc1NS(=O)(=O)c1ccc(C)c(C)c1` [Example 83, methyl 5-((3,4-dimethylphenyl)sulfonamido)-3-(4-methoxyphenyl)isoxazole-4-carboxylate] registered an IC50 in experiment [2] above 125 µM.

In experiment [1], `CCc1ccc(OC)c(S(=O)(=O)Nc2cc(-c3ccncc3)no2)c1` [Example 85, 5-Ethyl-2-methoxy-N-(3-(pyridin-4-yl)isoxazol-5-yl)benzenesulfonamide] showed an IC50 above 125 µM.

On to `COCc1ccc(OC)cc1-c1nnc(NS(=O)(=O)c2c(OC)cccc2OC)s1` [Example 96, 2,6-Dimethoxy-N-(5-(5-methoxy-2-(methoxymethyl)phenyl)-1,3,4-thiadiazol-2-yl)benzenesulfonamide], for which the figures for the IC50 in experiment [4] (setting [8]), in experiment [5] (setting [9]) and in experiment [6] (setting [10]) were 3.94 µM, 7.38 µM and 27.2 µM, respectively.

`COc1cccc(OC)c1S(=O)(=O)Nc1nnc(-c2ccccc2Cn2cccn2)s1` [Example 101, N-(5-(2-((1H-Pyrazol-1-yl)methyl)phenyl)-1,3,4-thiadiazol-2-yl)-2,6-dimethoxybenzenesulfonamide]: the IC50 in experiment [1] and in experiment [7] was above 125 µM throughout.

For the molecule `COc1ccc(-n2cccn2)cc1-c1cc(NS(=O)(=O)c2c(OC)cccc2OC)no1` [Example 105, 2,6-Dimethoxy-N-(5-(2-methoxy-5-(1H-pyrazol-1-yl)phenyl)isoxazol-3-yl)benzenesulfonamide], the IC50 in experiment [4] (setting [8]) is 0.173 µM; in experiment [5] (setting [9]), 3 µM; in experiment [6] (setting [10]), 17.1 µM.

For `COc1ccccc1-c1cc(NS(=O)(=O)Nc2ccccc2)no1` [Example 116, N-Phenyl((5-(2-methoxyphenyl)-1,2-oxazol-3-yl)amino)sulfonamide], the IC50 in experiment [4] (U2OS, 24 h) is above 20 µM; in experiment [5] (U2OS, 24 h), above 40 µM; in experiment [6] (U2OS, 24 h), above 40 µM.

For the molecule `CCc1ccc(OC)c(S(=O)(=O)Nc2nnc(-c3ccc(OC)c(OC)c3)o2)c1` [Example 125, N-(5-(3,4-Dimethoxyphenyl)-1,3,4-oxadiazol-2-yl)-5-ethyl-2-methoxybenzenesulfonamide], the IC50 in experiment [1] is above 125 µM.

For the molecule `COc1ccccc1-c1nnc(NS(=O)(=O)C2CCOCC2)s1` [Example 127, N-(5-(2-methoxyphenyl)-1,3,4-thiadiazol-2-yl)tetrahydro-2H-pyran-4-sulfonamide], the IC50 in experiment [1] and in experiment [7] was above 125 µM each time.

The record behind these values is patent US20240277683A1, “COMPOUNDS” (CTXT PTY LTD, priority 2018, published 2024).
